Results published in patent US4604239A, “Antibiotics” (Eli Lilly and Company, priority 1985, dated 1986).
≈ marks a conversion by molar mass, not a printed value. Like-named read-outs stand apart in the source and are kept apart here.

How the values were obtained:
Streptococcus faecalis = experiment: agar-dilution MIC; assay type: cell-based; details: Streptococcus faecalis X66; Table 7
Hemophilus influenzae = experiment: agar-dilution MIC; assay type: cell-based
Neisseria sp. = experiment: agar-dilution MIC; assay type: cell-based; details: Table 10
Protocol: The test results are recorded in Table 10, which follows.

Bacteroides fragilis = experiment: agar-dilution MIC; assay type: cell-based
From the text: (§1) The agar-dilution procedure described by the International Collaborative study (ICS) group was used to determine the minimum inhibitory concentrations (MIC's).

[1] = tested on: Staphylococcus epidermidis; experiment: agar-dilution MIC; assay type: cell-based
From the text: as §1

Viridans streptococcus = experiment: agar-dilution MIC; assay type: cell-based; details: Table 11
Shigella flexneri = Shigella flexneri SH-4; Table 11
From the text: as §1

Clostridium difficile = assay type: cell-based
[2] = tested on: Streptococcus sp. Group B; experiment: agar-dilution MIC; assay type: cell-based; details: end point after 24 hours, Table 18
From the text: The in vitro activity of antibiotic A41030 factors A and B against a number of representative aerobic, gram-positive bacteria, including Streptococcus sp. Group D, has been determined using a standard agar-dilution assay.

[3] = tested on: Haemophilus parainfluenzae; experiment: agar-dilution MIC; assay type: cell-based; details: end point after 24 hours, Table 18
rumen fluid = experiment: in vitro rumen fluid fermentation, volatile fatty acids; set-up: species or system steer; details: 16 hours at 38° C.
From the text: Rumen fluid was obtained from a steer having a surgically-installed fistula opening into the rumen. The steer was maintained on a high-grain ration, the composition of which follows: A sample of rumen fluid was strained through 4 layers of cheesecloth and the filtrate was collected in a vacuum bottle. The particulate matter retained by the cheesecloth was resuspended in enough physiological buffer to return it to the original volume of the rumen fluid, and the suspension was again strained through cheesecloth. The buffer used is described below: The two filtrates were pooled in a separatory funnel and allowed to stand till particulate matter rose to the top. The clear layer was then separated and diluted 1:1 with the same buffer, and adjusted to pH 7.0. Ten ml. of the diluted rumen fluid thus prepared was placed in a 25 ml. flask with 90 mg. of finely-powdered high-grain ration, the composition of which is described above. The compound to be tested was weighed out and dissolved in the appropriate solvent, supra. The solution was placed on the finely-powdered ration in each test flask and dried. Two sets of four untreated control flasks each were also prepared. One set of four untreated control flasks was incubated for 16 hours at 38° C. with the test flasks. […] Fermentation in the incubated test and control flasks was stopped at the end of 16 hours by addition of 2 ml. of 25 percent metaphosphoric acid to each flask. All of the samples were allowed to settle, and the supernatant was analyzed by gas chromatographic methods for acetate, propionate, and butyrate. The analysis for each volatile fatty acid found in the zero-time controls was substracted from the analyses of the untreated controls and of the test flasks. The resulting values reflect the amount of each VFA produced during the 16-hour fermentation period. The data below are reported as the ratio of VFA's produced in treated flasks to VFA's produced in untreated control flasks.

NC1C(=O)NC2Cc3ccc(c(Cl)c3)Oc3cc4cc(c3O)Oc3ccc(cc3Cl)C(O)C3NC(=O)C(NC(=O)C4NC(=O)C(NC2=O)c2cc(O)cc(c2)Oc2cc1ccc2O)c1cc(Cl)c(O)c(c1)-c1c(O)cc(O)cc1C(C(=O)O)NC3=O (centres unmarked) [A41030 factor A]
MIC (Streptococcus faecalis): < 0.5 µg/mL
MIC (Hemophilus influenzae; Haemophilus influenzae 76, end point after 24 hours, Table 18): 4 µg/mL (≈ 3.24 µM)
MIC (Hemophilus influenzae; Haemophilus influenzae 251, Table 17): 2 µg/mL (≈ 1.62 µM)
MIC (Hemophilus influenzae; Haemophilus influenzae 312, end point after 24 hours, Table 18): 2 µg/mL (≈ 1.62 µM)
MIC (Hemophilus influenzae; Haemophilus influenzae 4842, end point after 24 hours, Table 18): 2 µg/mL (≈ 1.62 µM)
MIC (Hemophilus influenzae; Haemophilus influenzae 16836, end point after 24 hours, Table 18): 4 µg/mL (≈ 3.24 µM)
MIC (Hemophilus influenzae; Haemophilus influenzae Bond, end point after 24 hours, Table 18): 2 µg/mL (≈ 1.62 µM)
MIC (Hemophilus influenzae; Haemophilus influenzae Brun, Table 17): 8 µg/mL (≈ 6.49 µM)
MIC (Hemophilus influenzae; Haemophilus influenzae C.L., end point after 24 hours, Table 18): 4 µg/mL (≈ 3.24 µM)
MIC (Hemophilus influenzae; Haemophilus influenzae Mx366, end point after 24 hours, Table 18): 2 µg/mL (≈ 1.62 µM)
MIC (Hemophilus influenzae; Haemophilus influenzae Mx371, end point after 24 hours, Table 18): 2 µg/mL (≈ 1.62 µM)
MIC (Hemophilus influenzae; Hemophilus influenzae 75-312, Table 9): 8 µg/mL (≈ 6.49 µM)
MIC (Hemophilus influenzae; Hemophilus influenzae 75-313, Table 9): 16 µg/mL (≈ 13 µM)
MIC (Hemophilus influenzae; Hemophilus influenzae 75-364, Table 9): 16 µg/mL (≈ 13 µM)
MIC (Hemophilus influenzae; Hemophilus influenzae 75-465, Table 9): 32 µg/mL (≈ 25.9 µM)
MIC (Hemophilus influenzae; Hemophilus influenzae 75-19300, Table 9): 16 µg/mL (≈ 13 µM)
MIC (Hemophilus influenzae; Hemophilus influenzae 75-90383, Table 9): 16 µg/mL (≈ 13 µM)
MIC (Hemophilus influenzae; Hemophilus influenzae 4842, Table 9): 8 µg/mL (≈ 6.49 µM)
MIC (Hemophilus influenzae; Hemophilus influenzae A. Hall, Table 9): 16 µg/mL (≈ 13 µM)
MIC (Hemophilus influenzae; Hemophilus influenzae Bruno, Table 9): 16 µg/mL (≈ 13 µM)
MIC (Hemophilus influenzae; Hemophilus influenzae C. Steele, Table 9): 16 µg/mL (≈ 13 µM)
MIC (Hemophilus influenzae; Hemophilus influenzae G. Newton, Table 9): 32 µg/mL (≈ 25.9 µM)
MIC (Hemophilus influenzae; Hemophilus influenzae Howard, Table 9): 16 µg/mL (≈ 13 µM)
MIC (Hemophilus influenzae; Hemophilus influenzae Miller, Table 9): 16 µg/mL (≈ 13 µM)
MIC (Hemophilus influenzae; Hemophilus influenzae P. Wylie, Table 9): 16 µg/mL (≈ 13 µM)
MIC (Hemophilus influenzae; Hemophilus influenzae R251, Table 9): 16 µg/mL (≈ 13 µM)
MIC (Hemophilus influenzae; Hemophilus influenzae R259, Table 9): 16 µg/mL (≈ 13 µM)
MIC (Hemophilus influenzae; Hemophilus influenzae R272, Table 9): 16 µg/mL (≈ 13 µM)
MIC (Hemophilus influenzae; Hemophilus influenzae R274, Table 9): 16 µg/mL (≈ 13 µM)
MIC (Hemophilus influenzae; Hemophilus influenzae S. Ford, Table 9): 16 µg/mL (≈ 13 µM)
MIC (Neisseria sp.; Neisseria sp. L. Nance): 4.0 µg/mL (≈ 3.24 µM)
MIC (Neisseria sp.; Neisseria sp. Mitchell): 4.0 µg/mL (≈ 3.24 µM)
MIC (Neisseria sp.; Neisseria sp. Sanders): 1.0 µg/mL (≈ 0.811 µM)
MIC (Neisseria sp.; Neisseria sp. Schultz): 8.0 µg/mL (≈ 6.49 µM)
MIC (Neisseria sp.; Neisseria sp. Woods): 4.0 µg/mL (≈ 3.24 µM)
MIC (Bacteroides fragilis; B. fragilis 2, 24-hour, Table 12): 64 µg/mL (≈ 51.9 µM)
MIC (Bacteroides fragilis; B. fragilis 9, 24-hour, Table 12): 64 µg/mL (≈ 51.9 µM)
MIC (Bacteroides fragilis; B. fragilis 103, 24-hour, Table 12): 32 µg/mL (≈ 25.9 µM)
MIC (Bacteroides fragilis; B. fragilis 104, 24-hour, Table 12): 32 µg/mL (≈ 25.9 µM)
MIC (Bacteroides fragilis; B. fragilis 106, 24-hour, Table 12): 64 µg/mL (≈ 51.9 µM)
MIC (Bacteroides fragilis; B. fragilis 107, 24-hour, Table 12): 32 µg/mL (≈ 25.9 µM)
MIC (Bacteroides fragilis; B. fragilis 108, 24-hour, Table 12): 32 µg/mL (≈ 25.9 µM)
MIC (Bacteroides fragilis; B. fragilis 110, 24-hour, Table 12): 64 µg/mL (≈ 51.9 µM)
MIC (Bacteroides fragilis; B. fragilis 111, 24-hour, Table 12): 32 µg/mL (≈ 25.9 µM)
MIC (Bacteroides fragilis; B. fragilis 112, 24-hour, Table 12): 64 µg/mL (≈ 51.9 µM)
MIC (Bacteroides fragilis; B. fragilis 113, 24-hour, Table 12): 32 µg/mL (≈ 25.9 µM)
MIC (Bacteroides fragilis; B. fragilis 1451, 24-hour, Table 12): 64 µg/mL (≈ 51.9 µM)
MIC (Bacteroides fragilis; B. fragilis 1470, 24-hour, Table 12): 64 µg/mL (≈ 51.9 µM)
MIC (Bacteroides fragilis; B. fragilis 1877, 24-hour, Table 12): 32 µg/mL (≈ 25.9 µM)
MIC (Bacteroides fragilis; B. fragilis 9032, 24-hour, Table 12): 64 µg/mL (≈ 51.9 µM)
MIC (Bacteroides fragilis; Bacteroides fragilis 1877, Table 14): 32 µg/mL (≈ 25.9 µM)
MIC (Bacteroides fragilis; Bacteroides fragilis 1936B, Table 14): 64 µg/mL (≈ 51.9 µM)
MIC ([1]; Staphylococcus epidermidis 219, end point after 24 hours, Table 18): 0.06 µg/mL (≈ 0.0486 µM)
MIC ([1]; Staphylococcus epidermidis 269, end point after 24 hours, Table 18): 0.06 µg/mL (≈ 0.0486 µM)
MIC ([1]; Staphylococcus epidermidis 270, end point after 24 hours, Table 18): 0.06 µg/mL (≈ 0.0486 µM)
MIC ([1]; Staphylococcus epidermidis 285, end point after 24 hours, Table 18): 0.06 µg/mL (≈ 0.0486 µM)
MIC ([1]; Staphylococcus epidermidis Britton, Table 11): 0.13 µg/mL (≈ 0.105 µM)
MIC ([1]; Staphylococcus epidermidis EPI2, Table 17): 1 µg/mL (≈ 0.811 µM)
MIC ([1]; Staphylococcus epidermidis Litton, Table 11): 0.13 µg/mL (≈ 0.105 µM)
MIC ([1]; Staphylococcus epidermidis Mencher, Table 11): ≤ 0.06 µg/mL
MIC ([1]; Staphylococcus epidermidis Mobley, Table 11): ≤ 0.06 µg/mL
MIC (Viridans streptococcus; Viridans streptococcus SM-1134): 0.5 µg/mL (≈ 0.405 µM)
MIC (Viridans streptococcus; Viridans streptococcus SSI-910): 0.25 µg/mL (≈ 0.203 µM)
MIC (Viridans streptococcus; Viridans streptococcus SSII-895): 0.25 µg/mL (≈ 0.203 µM)
MIC (Shigella flexneri): 64 µg/mL (≈ 51.9 µM)
MIC (Clostridium difficile; Clostridium difficile 78, Table 16): 1.0 µg/mL (≈ 0.811 µM)
MIC (Clostridium difficile; Clostridium difficile 107B, Table 16): 1.0 µg/mL (≈ 0.811 µM)
MIC (Clostridium difficile; Clostridium difficile 111F, Table 16): 1.0 µg/mL (≈ 0.811 µM)
MIC (Clostridium difficile; Clostridium difficile 1153, Table 16): 1.0 µg/mL (≈ 0.811 µM)
MIC (Clostridium difficile; Clostridium difficile 2634, Table 16): 1.0 µg/mL (≈ 0.811 µM)
MIC (Clostridium difficile; Clostridium difficile 2994, Table 14): 32 µg/mL (≈ 25.9 µM)
MIC (Clostridium difficile; Clostridium difficile 3424-5B, Table 16): 1.0 µg/mL (≈ 0.811 µM)
MIC (Clostridium difficile; Clostridium difficile 3816, Table 16): 1.0 µg/mL (≈ 0.811 µM)
MIC (Clostridium difficile; Clostridium difficile 3950D, Table 16): 1.0 µg/mL (≈ 0.811 µM)
MIC (Clostridium difficile; Clostridium difficile 6890, Table 16): 1.0 µg/mL (≈ 0.811 µM)
MIC (Clostridium difficile; Clostridium difficile 8484, Table 16): 1.0 µg/mL (≈ 0.811 µM)
MIC (Clostridium difficile; Clostridium difficile A-194, Table 16): 1.0 µg/mL (≈ 0.811 µM)
MIC (Clostridium difficile; Clostridium difficile A-195, Table 16): 1.0 µg/mL (≈ 0.811 µM)
MIC (Clostridium difficile; Clostridium difficile A-196, Table 16): 1.0 µg/mL (≈ 0.811 µM)
MIC (Clostridium difficile; Clostridium difficile A-279, Table 16): 1.0 µg/mL (≈ 0.811 µM)
MIC (Clostridium difficile; Clostridium difficile A-280, Table 16): 1.0 µg/mL (≈ 0.811 µM)
MIC (Clostridium difficile; Clostridium difficile A-281, Table 16): 1.0 µg/mL (≈ 0.811 µM)
MIC (Clostridium difficile; Clostridium difficile WAL-2112, Table 16): 1.0 µg/mL (≈ 0.811 µM)
MIC (Clostridium difficile; Clostridium difficile WAL-3657, Table 16): 1.0 µg/mL (≈ 0.811 µM)
MIC (Clostridium difficile; Clostridium difficile WAL-4268, Table 16): 1.0 µg/mL (≈ 0.811 µM)
MIC ([2]; Streptococcus sp. Group B 5): 1 µg/mL (≈ 0.811 µM)
MIC ([2]; Streptococcus sp. Group B 14): 0.06 µg/mL (≈ 0.0486 µM)
MIC ([3]; Haemophilus parainfluenzae 7901): 16 µg/mL (≈ 13 µM)
MIC ([3]; Haemophilus parainfluenzae 9796): 16 µg/mL (≈ 13 µM)
Acetate, ratio of VFA's produced in treated flasks to untreated control flasks (rumen fluid; 1 mcg./ml.): 1.01
Butyrate, ratio of VFA's produced in treated flasks to untreated control flasks (rumen fluid; 1 mcg./ml.): 0.66
Propionate, ratio of VFA's produced in treated flasks to untreated control flasks (rumen fluid; 1 mcg./ml.): 1.31
Acetate, ratio of VFA's produced in treated flasks to untreated control flasks (rumen fluid; 2 mcg./ml.): 1.03
Butyrate, ratio of VFA's produced in treated flasks to untreated control flasks (rumen fluid; 2 mcg./ml.): 0.94
Propionate, ratio of VFA's produced in treated flasks to untreated control flasks (rumen fluid; 2 mcg./ml.): 1.33
